# Columns and labels:
# Assay in all cases: relative viability (nuclei count vs DMSO), 5 days (fraction); higher = more cells survive
# [1] = compound: CC(C)=CC[C@@H](O)C1=CC(=O)c2c(O)ccc(O)c2C1=O [Shikonin] + Cc1nc(NC(=O)N2CCC[C@H]2C(N)=O)sc1-c1ccnc(C(C)(C)C(F)(F)F)c1 [Alpelisib] (partner 2 µM)
# In short: (§1)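 Five library-drug doses in √10 steps were combined with a fixed anchor-drug dose, or a single drug was given alone, by pin tool to lung cancer cell lines in 1536-well plates the day after seeding. Nuclei were stained and counted after 5 days. Relative viability is the nuclei count in treated wells over that in vehicle wells, taken as the median of duplicate plates.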
# [2] = compound: CC(C)=CC[C@@H](O)C1=CC(=O)c2c(O)ccc(O)c2C1=O [Shikonin] + Cc1nc(Nc2ncc(C(=O)Nc3c(C)cccc3Cl)s2)cc(N2CCN(CCO)CC2)n1 [Dasatinib] (partner 0.075 µM)
# In short: as §1
# [3] = compound: CC(C)N(CCCNC(=O)Nc1ccc(C(C)(C)C)cc1)C[C@H]1O[C@@H](n2ccc3c(N)ncnc32)[C@H](O)[C@@H]1O + COc1cc2c(Oc3ccc(NC(=O)C4(C(=O)Nc5ccc(F)cc5)CC4)cc3F)ccnc2cc1OCCCN1CCOCC1 [Foretinib] (partner 0.25 µM)
# In short: as §1
# [4] = compound: CC(C)N(CCCNC(=O)Nc1ccc(C(C)(C)C)cc1)C[C@H]1O[C@@H](n2ccc3c(N)ncnc32)[C@H](O)[C@@H]1O + C[C@@H](Oc1cc(-c2cnn(C3CCNCC3)c2)cnc1N)c1c(Cl)ccc(F)c1Cl [Crizotinib] (partner 1 µM)
# In short: as §1
Cell Line,relative viability ([1]; first compound 0.01 µM),relative viability ([1]; first compound 0.1 µM),relative viability ([1]; first compound 0.3162 µM),relative viability ([1]; first compound 1 µM),relative viability ([2]; first compound 0.01 µM),relative viability ([2]; first compound 0.1 µM),relative viability ([2]; first compound 0.3162 µM),relative viability ([2]; first compound 1 µM),relative viability ([3]; first compound 0.08 µM),relative viability ([3]; first compound 0.253 µM),relative viability ([3]; first compound 0.8 µM),relative viability ([3]; first compound 2.53 µM),relative viability ([3]; first compound 8 µM),relative viability ([4]; first compound 0.08 µM),relative viability ([4]; first compound 0.253 µM),relative viability ([4]; first compound 0.8 µM),relative viability ([4]; first compound 2.53 µM),relative viability ([4]; first compound 8 µM)
SK-LU-1,1,1.09,0.965,0.8,0.164,0.191,0.182,0.186,0.904,0.919,0.898,0.911,0.754,1.03,0.931,0.969,1.08,0.875
SK-MES-1,0.873,1.04,0.909,0.594,0.26,0.453,0.323,0.375,0.792,0.848,0.881,1,0.804,0.991,1.05,1.01,0.997,0.956
SW 1573,0.816,0.888,0.801,0.657,0.591,0.546,0.444,0.144,0.81,0.707,0.825,0.927,1.08,0.749,0.894,0.825,0.846,0.695

# — the supplement of paper PMC10307832
